Source: patent publication US7244595B2, “Method of maintaining or improving a nitrile hydratase activity” (priority 2003, dated 2007)
“And” between values parts separate entries of the source, which are not always exact repeats. Equal values may be shown once.

Key:
nitrile hydratase [1] = molecular target: T1, nitrile hydratase (Pseudonocardia thermophila, UniProt Q7SID2+Q7SID3); test: Nitrile hydrating activity (acrylamide formed) of wet microorganism contacted with an oxidizing agent in deoxidized water; type: cell-based, Escherichia coli HB101 (MT-10822 strain); parameters: expressed in transfected cells; host or cells: Escherichia coli HB101 (transformant MT-10822, FERM BP-5785), IPTG-induced
Description: (§1) In HPLC analysis of a reaction solution in the Examples, ULTRON 80HG (50×8 φmm) was used as an HPLC column, and 10 mM aqueous phosphate solution was used as a developing solution. Acrylamide and acrylonitrile were detected by absorbance at 220 nm to determine their concentrations.
The resulting microorganism, 0.20 g, was suspended in previously deoxidized pure water in a 100 ml sealable glass container previously sufficiently purged with nitrogen, and potassium ferricyanide was added and suspended as an oxidizing agent at a final concentration shown in Table 1 to give 20.00 g suspension. Separately, an oxidizing agent-free microbial suspension was prepared in the same manner. The microbial suspension was kept at 20° C. for 15 minutes under stirring.
(§2) The reaction was terminated by adding 80 g of 10 mM aqueous phosphoric acid, and then the concentration of acrylamide in the reaction solution was determined by HPLC analysis. Subsequently, the concentration of the microbial suspension based on the dry weight of the microorganism was determined, and then the amount of formed acrylamide per unit dry weight of the microorganism was calculated.
The amount of acrylamide formed per unit dry weight of the microorganism was determined in the same manner as in Example 3 except that in place of potassium ferricyanide, ammonium persulfate was added and suspended as an oxidizing agent at a concentration shown in Table 1.
The microbial suspension was kept at 20° C. under stirring. 0 minute, 10 minutes, 2 hours and 24 hours after the stirring was initiated, a small amount of the microbial suspension was collected, and the amount of formed acrylamide per unit dry weight of the microorganism was determined in the same manner as in Example 3.
Separately, a microbial suspension wherein the oxidizing agent was not added and the pH value was not adjusted was also prepared in the same manner. The microbial suspension was kept at 20° C. for 15 minutes under stirring. The amount of formed acrylamide per unit dry weight of the microorganism was determined in the same manner as in Example 3.
Separately, a microbial suspension wherein the oxidizing agent was not added was also prepared in the same manner. The amount of formed acrylamide per unit dry weight of the microorganism was determined in the same manner as in Example 3.

nitrile hydratase [2] = molecular target: T1, nitrile hydratase
Description: as §1
MT-10822 strain (FERM BP-5785, see JP-A 11-253168) having a nitrile hydratase gene introduced into Escherichia coli HB101, deposited by Mitsui Chemicals, Inc., was used as the nitrile hydratase-containing cell in this example.
For culture of this microbial strain, 15.0 L medium having the following composition was prepared in a 30 L culture container and sterilized with high-pressure steam at 121° C. for 20 minutes. Ampicillin was added at a final concentration of 50 μg/ml to this medium, and the microbial strain was inoculated via a platinum loop thereto and cultured at 37° C. at 700 rpm for 20 hours. […]
The reaction was terminated by adding 80 g of 10 mM aqueous phosphoric acid, and then the concentration of acrylamide in the reaction solution was determined by HPLC analysis. Subsequently, the concentration of the microbial suspension was determined on the basis of the dry weight of the microorganism, and then the amount of formed acrylamide per unit dry weight of the microorganism was calculated. […]

nitrile hydratase [3] = molecular target: T1, nitrile hydratase; remark: listed apart in the source
Description: as §1, §2
A wet microorganism was obtained in the same manner as in Example 3. […] The suspension was kept at 10° C. under stirring, while the air (40 N-ml/min.) was passed through the gaseous phase in the flask. 0, 1, 2, 3, 7 and 19 days after storage, a part of the microbial suspension was removed. […] The amount of formed acrylamide in each of the collected microbial suspensions per unit dry weight of the microorganism was determined in the same manner as in Example 3.
A wet microorganism was obtained in the same manner as in Example 3. […] The amount of formed acrylamide in each of the collected microbial suspensions per unit dry weight of the microorganism was determined in the same manner as in Example 3.

T1 sequence (Q7SID2 whole entry): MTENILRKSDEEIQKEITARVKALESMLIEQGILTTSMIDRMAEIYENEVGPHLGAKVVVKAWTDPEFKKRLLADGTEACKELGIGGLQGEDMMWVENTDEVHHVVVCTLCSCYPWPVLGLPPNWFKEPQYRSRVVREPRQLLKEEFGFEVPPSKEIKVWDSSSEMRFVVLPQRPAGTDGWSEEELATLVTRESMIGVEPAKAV
T1 sequence (Q7SID3 whole entry): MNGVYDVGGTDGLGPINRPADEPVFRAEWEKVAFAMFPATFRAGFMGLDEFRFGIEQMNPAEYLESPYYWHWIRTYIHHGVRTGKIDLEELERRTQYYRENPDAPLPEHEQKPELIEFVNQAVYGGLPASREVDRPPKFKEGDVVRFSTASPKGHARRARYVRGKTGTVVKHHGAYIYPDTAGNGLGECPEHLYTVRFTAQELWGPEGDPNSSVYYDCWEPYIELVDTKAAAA

Row | Structure (SMILES) | AMOUNT OF […] (RELATIVE VALUE) (nitrile hydratase [1]) [relative value] | nitrile hydrating activity of the nitrile hydratase on contact of the microorganism with the oxidizing agent (in words) (nitrile hydratase [1]) | amount of formed acrylamide per unit dry weight of the microorganism (0 hour of storage = 1) (nitrile hydratase [2]) | nitrile hydrating activity of the nitrile hydratase on contact with oxygen, depending on the contact time (in words) (nitrile hydratase [3])
1 | N.N.O=S(=O)(O)OOS(=O)(=O)O [AMMONIUM PERSULFATE, ammonium persulfate] | 1.6 | improved |  | 
2 | OO [HYDROGEN PEROXIDE, hydrogen peroxide] | 2.4 | improved |  | 
3 | O=O [oxygen] |  |  | 1.1 and 1.0 | improved depending on the contact time
